# Test results: patent US7495018B2, “Substituted 1,3-thiazole compounds, their production and use” (Takeda Pharmaceutical Company Limited, priority 2000, dated 2009)
row,melting point [°C],SMILES
1,190 to 191,"COc1cccc(-c2nc(N)sc2-c2ccnc(F)c2)c1 [Example Compound 7-1, [5-(2-fluoro-4-pyridyl)-4-(3-methoxyphenyl)-1,3-thiazol-2-yl]amine]"
2,147 to 148,"CCOC(=O)c1nc(-c2cccc(C)c2)c(-c2ccnc(N)c2)s1 [Example Compound 18-6, Ethyl [5-(2-amino-4-pyridyl)-4-(3-methylphenyl)-1,3-thiazol-2-yl]carboxylate]"
3,121 to 122,"CCc1nc(-c2cccc(Cl)c2)c(-c2ccnc(NC(=O)CC3CCCC3)c2)s1 [Example 90-1, N-[4-[4-(3-chlorophenyl)-2-ethyl-1,3-thiazol-5-yl]-2-pyridyl]cyclopentylacetamide]"
4,201 to 203,"Cc1cccc(-c2nc(NC(=O)c3cccnc3)sc2-c2ccnc(NC3CCCCC3)c2)c1 [Example Compound 42-3, N-[5-(2-cyclohexylamino-4-pyridyl)-4-(3-methylphenyl)-1,3-thiazol-2-yl]nicotinamide]"
5,233 to 234,"Cc1cc(-c2sc(N)nc2-c2ccc(F)cc2)ccn1 [Example Compound 7-8, [4-(4-fluorophenyl)-5-(2-methyl-4-pyridyl)-1,3-thiazol-2-yl]amine]"
6,256 to 258,"Cc1cc(C)cc(-c2nc(N)sc2-c2cc(C)nc(C)c2)c1 [Example Compound 7-7, [4-(3,5-dimethylphenyl)-5-(2,6-dimethyl-4-pyridyl)-1,3-thiazol-2-yl]amine]"
7,142 to 143,"Cc1nc(-c2cccc(Cl)c2)c(-c2ccnc(N)c2)s1 [Example Compound 27-2, 4-[4-(3-chlorophenyl)-2-methyl-1,3-thiazol-5-yl]-2-pyridylamine]"
8,99 to 102,"CC(=O)Nc1cc(-c2sc(C(C)O)nc2-c2cccc(C)c2)ccn1 (centres unmarked) [Example 111-1, N-[4-[2-(1-hydroxyethyl)-4-(3-methylphenyl)-1,3-thiazol-5-yl]-2-pyridyl]acetamide]"
9,211 to 212,"CNc1nc(-c2cccc(C)c2)c(-c2ccnc(NC3CCCCC3)c2)s1 [Example Compound 36-2, N-methyl-[5-(2-cyclohexylamino-4-pyridyl)-4-(3-methylphenyl)-1,3-thiazol-2-yl]amine]"
10,117 to 118,"Cc1cccc(-c2nc(N(C)C(=O)c3ccc(C)nc3)sc2-c2ccnc(NC3CCCC3)c2)c1 [Example Compound 46-4, N-[5-(2-cyclopentylamino-4-pyridyl)-4-(3-methylphenyl)-1,3-thiazol-2-yl]-N,6-dimethylnicotinamide]"
11,99 to 100,"CCCc1nc(-c2cccc(Cl)c2)c(-c2ccnc(N)c2)s1 [Example Compound 21-1, 4-[4-(3-chlorophenyl)-2-propyl-1,3-thiazol-5-yl]-2-pyridylamine]"
12,206 to 208,"Nc1nc(-c2cccc(Cl)c2)c(-c2ccnc(N3CCCCC3)c2)s1 [Example Compound 35-1, [4-(3-chlorophenyl)-5-(2-piperidino-4-pyridyl)-1,3-thiazol-2-yl]amine]"
13,110 to 113,"CC(=O)Nc1cc(-c2sc(C(C)OC(=O)c3ccccc3)nc2-c2cccc(C)c2)ccn1 (centres unmarked) [Example 110, 1-[5-(2-acetylamino-4-pyridyl)-4-(3-methylphenyl)-1,3-thiazol-2-yl]ethyl benzoate]"
14,123 to 125,"CCc1nc(-c2cccc(C)c2)c(-c2ccnc(NC(=O)C3CCCC3)c2)s1 [Example Compound 29-1, N-[4-[2-ethyl-4-(3-methylphenyl)-1,3-thiazol-5-yl]-2-pyridyl]cyclopentanecarboxamide]"
15,216 to 217,"CC(=O)Nc1cc(-c2sc(-c3ccc(S(C)(=O)=O)cc3)nc2-c2cccc(Cl)c2)ccn1 [Example Compound 58-6, N-[4-[4-(3-chlorophenyl)-2-(4-methylsulfonylphenyl)-1,3-thiazol-5-yl]-2-pyridyl]acetamide]"
16,197 to 198,"Cc1cccc(-c2nc(-c3ccc(S(C)(=O)=O)cc3)sc2-c2cc[n+]([O-])c(C)c2)c1 [Example Compound 68-1, 4-[4-(3-methylphenyl)-2-(4-methylsulfonylphenyl)-1,3-thiazol-5-yl]-2-methylpyridine N-oxide]"
17,152 to 153,"Cc1cccc(-c2nc(C)sc2-c2ccnc(N)c2)c1 [Example Compound 23-1, 4-[2-methyl-4-(3-methylphenyl)-1,3-thiazol-5-yl]-2-pyridylamine]"
18,228 to 230,"Cc1cccc(-c2nc(NC(=O)c3ccc(Cl)nc3)sc2-c2ccnc(C)c2)c1 [Example Compound 43, 6-chloro-N-[4-(3-methylphenyl)-5-(2-methyl-4-pyridyl)-1,3-thiazol-2-yl]nicotinamide]"
19,96 to 97,CSCCc1nc(-c2cccc(Cl)c2)c(-c2ccnc(N)c2)s1
20,214 to 216,"Cc1cccc(N2C=C(c3cc(C)nc(C)c3)SC2N)c1 (centres unmarked) [Example Compound 7-6, [5-(2,6-dimethyl-4-pyridyl)-3-(3-methylphenyl)-1,3-thiazol-2-yl]amine]"
21,154 to 155,"CCc1nc(-c2cccs2)c(-c2ccnc(NC(C)=O)c2)s1 [Example Compound 30-4, N-[4-[2-ethyl-4-(2-thienyl)-1,3-thiazol-5-yl]-2-pyridyl]acetamide]"
22,164 to 165,"CNc1nc(-c2cccc(C)c2)c(-c2ccnc(C)c2)s1 [Example Compound 9, N-methyl-[4-(3-methylphenyl)-5-(2-methyl-4-pyridyl)-1,3-thiazol-2-yl]amine]"
23,266 to 267,"CC(=O)Nc1nc(-c2cc(C)cc(C)c2)c(-c2cc(C)nc(C)c2)s1 [Example Compound 40-3, N-[4-(3,5-dimethylphenyl)-5-(2,6-dimethyl-4-pyridyl)-1,3-thiazol-2-yl]acetamide]"
24,159 to 160,"CCc1nc(-c2cccs2)c(-c2ccnc(N)c2)s1 [Example Compound 20-12, 4-[2-ethyl-4-(2-thienyl)-1,3-thiazol-5-yl]-2-pyridylamine]"
25,113 to 115,"CCCc1nc(-c2cccc(C)c2)c(-c2ccnc(N)c2)s1 [Example Compound 18-4, 4-[4-(3-methylphenyl)-2-propyl-1,3-thiazol-5-yl]-2-pyridylamine]"
26,112 to 115,"CC(=O)Nc1cc(-c2sc(C)nc2-c2cccc(Cl)c2)ccn1 [Example Compound 30-1, N-[4-[4-(3-chlorophenyl)-2-methyl-1,3-thiazol-5-yl]-2-pyridyl]acetamide]"
27,64 to 65,"Cc1cccc(-c2nc(CCc3ccccc3)sc2-c2ccnc(C)c2)c1 [Example Compound 14-8, 4-(3-methylphenyl)-5-(2-methyl-4-pyridyl)-2-(2-phenylethyl)-1,3-thiazole]"
28,187 to 188,"CCC(=O)Nc1cc(-c2sc(-c3ccc(SC)cc3)nc2-c2cccc(Cl)c2)ccn1 [Example Compound 30-11, N-[4-[4-(3-chlorophenyl)-2-[4-(methylthio)phenyl]-1,3-thiazol-5-yl]-2-pyridyl]propionamide]"

row,SMILES,melting point [°C]
1,"CCc1nc(-c2cccc(Br)c2)c(-c2ccnc(NC(=O)OC(C)(C)C)c2)s1 [Example Compound 75-1, 4-(3-bromophenyl)-5-[2-(tert-butoxycarbonylamino)-4-pyridyl]-2-ethyl-1,3-thiazole]",172 to 174
